# Test results published in PubChem BioAssay AID328 (DTP/NCI, 2004).
# Values joined by “and” are separate entries in the source; they are usually repeats but may differ in a detail not shown here. Equal values may be shown once. Inconclusive results and toxic doses are left out.
# System: BDF1 mice, P388 leukemia ip, median survival T/C
# Test: NCI In Vivo Anticancer Drug Screen. Data for tumor model P388 Leukemia (intraperitoneal) in B6D2F1 (BDF1) mice
# Details: endpoint: median survival time, higher = longer survival
# Procedure, shortened: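 Reported as T/C, where T is the survival measurement in dosed animals and C the same measurement in vehicle controls.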
# [1] = dose: 100.0 mg/kg/injection, schedule: Q01DX009 (ip), vehicle: saline with Tween-80
# [2] = dose: 100.0 mg/kg/injection, schedule: Q04DX003 (ip), vehicle: saline with Tween-80
# [3] = dose: 200.0 mg/kg/injection, schedule: Q01DX009 (ip), vehicle: saline with Tween-80
# [4] = dose: 200.0 mg/kg/injection, schedule: Q04DX003 (ip), vehicle: saline with Tween-80
# [5] = dose: 400.0 mg/kg/injection, schedule: Q04DX003 (ip), vehicle: saline with Tween-80
# [6] = dose: 50.0 mg/kg/injection, schedule: Q01DX009 (ip), vehicle: saline
# [7] = dose: 100.0 mg/kg/injection, schedule: Q01DX009 (ip), vehicle: saline
# [8] = dose: 200.0 mg/kg/injection, schedule: Q01DX009 (ip), vehicle: saline
# [9] = dose: 50.0 mg/kg/injection, schedule: Q01DX009 (ip), vehicle: saline with Tween-80
# [10] = dose: 50.0 mg/kg/injection, schedule: Q01DX005 (ip), vehicle: saline
# [11] = dose: 100.0 mg/kg/injection, schedule: Q01DX005 (ip), vehicle: saline
# [12] = dose: 200.0 mg/kg/injection, schedule: Q01DX005 (ip), vehicle: saline
# [13] = dose: 200.0 mg/kg/injection, schedule: Q04DX003 (ip), vehicle: saline
# [14] = dose: 400.0 mg/kg/injection, schedule: Q04DX003 (ip), vehicle: saline
# [15] = dose: 100.0 mg/kg/injection, schedule: Q01DX009 (ip), vehicle: Klucel (hydroxypropylcellulose) (HPC)
# [16] = dose: 100.0 mg/kg/injection, schedule: Q04DX003 (ip), vehicle: Klucel (hydroxypropylcellulose) (HPC)
# [17] = dose: 200.0 mg/kg/injection, schedule: Q01DX009 (ip), vehicle: Klucel (hydroxypropylcellulose) (HPC)
# [18] = dose: 200.0 mg/kg/injection, schedule: Q04DX003 (ip), vehicle: Klucel (hydroxypropylcellulose) (HPC)
# [19] = dose: 400.0 mg/kg/injection, schedule: Q04DX003 (ip), vehicle: Klucel (hydroxypropylcellulose) (HPC)
# [20] = dose: 50.0 mg/kg/injection, schedule: Q04DX003 (ip), vehicle: saline
# [21] = dose: 100.0 mg/kg/injection, schedule: Q04DX003 (ip), vehicle: saline
structure (smiles),measurement,setting,value
NC(Cc1ccc(O)cc1)C(=O)O (centres undefined),T/C,[1],100 % of control
same,T/C,[2],100 % of control
same,T/C,[3],92 % of control
same,T/C,[4],91 % of control
same,T/C,[5],95 % of control
NC(=O)C(N)CCSCC(=O)O (centres undefined),T/C,[6],88 % of control
same,T/C,[7],91 % of control
same,T/C,[8],94 % of control
CCCOC(=O)c1ccc(OP(=O)(N(C)C)N(C)C)cc1,T/C,[9],100 % of control
same,T/C,[1],104 % of control
same,T/C,[3],100 % of control
N#Cc1ccc(C(=O)CC(O)(C(F)(F)F)C(F)(F)F)cc1,T/C,"dose: 66.0 mg/kg/injection, schedule: Q04DX003 (ip), vehicle: saline with Tween-80",104 % of control
same,T/C,[2],95 % of control
same,T/C,"dose: 150.0 mg/kg/injection, schedule: Q04DX003 (ip), vehicle: saline with Tween-80",104 % of control
same,T/C,[4],100 % of control
same,T/C,[5],95 % of control
CC[N+]1(CC)CC[N+]2(CC1)CC[N+]1(CC[N+](CC)(CC)CC1)CC2,T/C,[6],101 % of control
same,T/C,[7],101 % of control
same,T/C,[8],106 % of control
NCCCCC1NC(=O)C(CCCCN)NC1=O (centres undefined),T/C,[10],105 % of control
same,T/C,[11],105 % of control
same,T/C,[12],95 % of control
CN(C)c1nn2c(-c3ccccc3)nnc2o1,T/C,[13],105 % of control
same,T/C,[14],120 % of control
CC(CC(=O)O)(CC(=O)O)c1ccccc1,T/C,[15],100 % of control
same,T/C,[16],104 % of control
same,T/C,[17],95 % of control
same,T/C,[18],95 % of control
same,T/C,"dose: 400.0 mg/kg/injection, schedule: Q01DX009 (ip), vehicle: Klucel (hydroxypropylcellulose) (HPC)",100 % of control
same,T/C,[19],90 % of control
CC(C)(C)c1ccc(Sc2cccc3c2C(=O)c2ccccc2C3)cc1,T/C,[9],92 % of control
same,T/C,[1],89 % of control
same,T/C,[3],89 % of control
Nc1nc2c(c(=O)[nH]1)N(CCS(=O)(=O)F)C(CNc1ccc(C(=O)NC(CCC(=O)O)C(=O)O)cc1)CN2 (centres undefined),T/C,"dose: 50.0 mg/kg/injection, schedule: Q04DX003 (ip), vehicle: sodium bicarbonate",105 % of control
same,T/C,"dose: 100.0 mg/kg/injection, schedule: Q04DX003 (ip), vehicle: sodium bicarbonate",99 % of control
same,T/C,"dose: 200.0 mg/kg/injection, schedule: Q04DX003 (ip), vehicle: sodium bicarbonate",99 % of control
CC1(C)O[C@]2(C)CC[C@@H]1[C@H]1O[C@@H]12,T/C,[10],102 % of control
same,T/C,[11],100 % of control
same,T/C,[12],102 % of control
C=C(NC(=O)C(=C)NC(=O)c1csc(C2=NC3c4csc(n4)C4NC(=O)c5csc(n5)C(C(C)(O)C(C)O)NC(=O)C5CSC(=N5)/C(=C/C)NC(=O)C(C(C)O)NC(=O)c5csc(n5)C3(CC2)NC(=O)C(C)NC(=O)C(=C)NC(=O)C(C)NC(=O)C(C(C)CC)NC2C=Cc3c(C(C)O)cc(nc3C2O)C(=O)OC4C)n1)C(N)=O (centres undefined),T/C,"dose: 18.75 mg/kg/injection, schedule: Q01DX009 (ip), vehicle: Klucel (hydroxypropylcellulose) (HPC)",112 % of control
same,T/C,"dose: 37.5 mg/kg/injection, schedule: Q01DX009 (ip), vehicle: Klucel (hydroxypropylcellulose) (HPC)",114 % of control
same,T/C,"dose: 50.0 mg/kg/injection, schedule: Q01DX009 (ip), vehicle: Klucel (hydroxypropylcellulose) (HPC)",158 % of control
same,T/C,"dose: 75.0 mg/kg/injection, schedule: Q01DX009 (ip), vehicle: Klucel (hydroxypropylcellulose) (HPC)",114 % of control
same,T/C,[15],155 % of control and 163 % of control
same,T/C,[17],156 % of control and 165 % of control and 182 % of control
same,T/C,"dose: 300.0 mg/kg/injection, schedule: Q01DX009 (ip), vehicle: Klucel (hydroxypropylcellulose) (HPC)",114 % of control
O=[N+]([O-])c1ccc(N2CCCCC2)c([N+](=O)[O-])c1,T/C,"dose: 12.5 mg/kg/injection, schedule: Q01DX009 (ip), vehicle: saline",110 % of control
same,T/C,"dose: 25.0 mg/kg/injection, schedule: Q01DX009 (ip), vehicle: saline",109 % of control
same,T/C,"dose: 25.0 mg/kg/injection, schedule: Q04DX003 (ip), vehicle: saline",121 % of control
same,T/C,[6],116 % of control
same,T/C,[20],114 % of control
same,T/C,[7],100 % of control
same,T/C,[21],112 % of control
same,T/C,[8],110 % of control
same,T/C,[13],123 % of control
same,T/C,"dose: 400.0 mg/kg/injection, schedule: Q01DX009 (ip), vehicle: saline",110 % of control
same,T/C,[14],102 % of control
CCOC(=O)C(=O)N(Cc1cnc2nc(N)[nH]c(=O)c2n1)c1ccc(C(=O)NC(CCC(=O)O)C(=O)O)cc1 (centres undefined),T/C,[20],96 % of control
same,T/C,[21],103 % of control
same,T/C,[13],116 % of control
CC(=O)OCC(=O)[C@@]1(O)CC[C@H]2[C@@H]3C[C@H](F)C4=CC(=O)CC[C@]4(C)[C@H]3C(=O)C[C@@]21C,T/C,"dose: 100.0 mg/kg/injection, schedule: Q01DX009 (ip), vehicle: other",100 % of control
CC(C)OC(=S)SSC(=S)OC(C)C,T/C,"dose: 100.0 mg/kg/injection, schedule: Q01DX001 (ip), vehicle: Klucel (hydroxypropylcellulose) (HPC)",118 % of control
same,T/C,[15],104 % of control
same,T/C,[16],104 % of control
same,T/C,"dose: 200.0 mg/kg/injection, schedule: Q01DX001 (ip), vehicle: Klucel (hydroxypropylcellulose) (HPC)",109 % of control
same,T/C,[17],109 % of control
same,T/C,[18],118 % of control
same,T/C,"dose: 400.0 mg/kg/injection, schedule: Q01DX001 (ip), vehicle: Klucel (hydroxypropylcellulose) (HPC)",104 % of control
same,T/C,[19],118 % of control
CO[C@@]12[C@H](COC(N)=O)C3=C(C(=O)C(C)=C(N)C3=O)N1C[C@@H]1N[C@@H]12,T/C,"dose: 0.03 mg/kg/injection, schedule: Q01DX010 (ip), vehicle: water",100 % of control
same,T/C,"dose: 0.06 mg/kg/injection, schedule: Q01DX010 (ip), vehicle: saline",123 % of control
same,T/C,"dose: 0.06 mg/kg/injection, schedule: Q01DX010 (ip), vehicle: water",115 % of control
same,T/C,"dose: 0.13 mg/kg/injection, schedule: Q01DX010 (ip), vehicle: water",168 % of control
same,T/C,"dose: 0.25 mg/kg/injection, schedule: Q01DX010 (ip), vehicle: saline",159 % of control and 161 % of control
same,T/C,"dose: 0.25 mg/kg/injection, schedule: Q01DX010 (ip), vehicle: water",200 % of control
same,T/C,"dose: 0.5 mg/kg/injection, schedule: Q01DX010 (ip), vehicle: saline",166 % of control and 213 % of control
same,T/C,"dose: 0.5 mg/kg/injection, schedule: Q01DX010 (ip), vehicle: water",242 % of control
same,T/C,"dose: 1.0 mg/kg/injection, schedule: Q01DX010 (ip), vehicle: saline",250 % of control and 180 % of control
same,T/C,"dose: 1.0 mg/kg/injection, schedule: Q01DX010 (ip), vehicle: water",215 % of control
same,T/C,"dose: 1.08 mg/kg/injection, schedule: Q04DX003 (ip), vehicle: saline",194 % of control and 196 % of control
same,T/C,"dose: 1.8 mg/kg/injection, schedule: Q04DX003 (ip), vehicle: saline",243 % of control and 222 % of control
same,T/C,"dose: 2.0 mg/kg/injection, schedule: Q01DX010 (ip), vehicle: saline",90 % of control and 114 % of control
same,T/C,"dose: 2.0 mg/kg/injection, schedule: Q01DX010 (ip), vehicle: water",105 % of control
same,T/C,"dose: 3.0 mg/kg/injection, schedule: Q04DX003 (ip), vehicle: saline",236 % of control and 244 % of control
same,T/C,"dose: 4.0 mg/kg/injection, schedule: Q01DX001 (ip), vehicle: saline",157 % of control
same,T/C,"dose: 5.0 mg/kg/injection, schedule: Q04DX003 (ip), vehicle: saline",90 % of control and 112 % of control
same,T/C,"dose: 6.0 mg/kg/injection, schedule: Q01DX001 (ip), vehicle: saline",176 % of control
same,T/C,"dose: 8.0 mg/kg/injection, schedule: Q01DX001 (ip), vehicle: saline",176 % of control
CC(C)CCOC(=O)C(Br)c1ccccc1 (centres undefined),T/C,"dose: 44.0 mg/kg/injection, schedule: Q01DX009 (ip), vehicle: saline with Tween-80",110 % of control
same,T/C,"dose: 66.0 mg/kg/injection, schedule: Q01DX009 (ip), vehicle: saline with Tween-80",107 % of control
same,T/C,[2],108 % of control
same,T/C,"dose: 150.0 mg/kg/injection, schedule: Q01DX009 (ip), vehicle: saline with Tween-80",115 % of control
same,T/C,[4],116 % of control
same,T/C,[5],104 % of control
